Each structure is given as a SMILES string.

The target in data set [1] is T1, TRPV1 receptors (Mus musculus, UniProt Q704Y3).
T1 construct: application of a very small amount of capsaicin (2 μl at a concentration of 160 μM) to the surface of the cornea of an animal; from tissue; host or cells: mouse cornea in vivo (C fibres)
Description: Mouse corneal irritation test (capsaicin-induced eye rubbing). It counts as in vivo. The note with it: compound 500 μM, 2 μl on the cornea 10 minutes before capsaicin 160 μM; eye rubs counted over 2 minutes. Here is the method: Mouse Corneal Irritation Test
The irritant nature of capsaicin can be readily assessed at the level of the cornea since this organ is one of the most innervated by C fibers. In this context, according to the preliminary experiments, the application of a very small amount of capsaicin (2 μl at a concentration of 160 μM) to the surface of the cornea of an animal results in a certain number of stereotyped behaviors associated with the irritation and that can be readily listed. Among these are: blinking of the eye, rubbing of the eye instilled with the ipsilateral forelimb, rubbing of the face with both forelimbs, scratching of the ipsilateral face with the hind limb. […] Its appearance is, moreover, also normal. […] It can be concluded from this that the duration of action of capsaicin at these doses is less than 2 minutes.
Summary of the Methodology:
The principle of the series of experiments is to determine whether the compounds of the invention can influence the behavioral response induced by a given amount of capsaicin. The capsaicin is initially diluted to 25 mM in DMSO and diluted, for its final use, in physiological saline with 10% Tween 80. It appears, based on control studies, that, under these conditions, the solvent has no effect.
In practice, the product to be tested, prepared at 25 mM in DMSO and diluted for its final use in physiological saline with 10% Tween 80, at the highest concentration of 500 μM, is administered by local application to the surface of the cornea in a volume of 2 μl, 10 minutes before the application of the capsaicin. The animal receives the ocular instillation of 2 μl of a solution of capsaicin at […] prepared as indicated above. Over the course of a period of observation of 2 minutes following the instillation, the number of times the instilled eye is rubbed by the ipsilateral forelimb is counted for each animal.
For a given group, the percentage protection is calculated as follows: P=100−((average number of scratches of the group treated with the compound/average number of scratches of the group treated with the solvent)×100). […]

Data set [2] deals with T2, TRPV1 receptor (Rattus norvegicus, UniProt O35433).
T2 construct: The neurons of the DRG naturally express the TRPV1 receptor; endogenous in cells; host or cells: primary culture of newborn rat dorsal root ganglion neurons
T2 sequence (O35433 whole entry): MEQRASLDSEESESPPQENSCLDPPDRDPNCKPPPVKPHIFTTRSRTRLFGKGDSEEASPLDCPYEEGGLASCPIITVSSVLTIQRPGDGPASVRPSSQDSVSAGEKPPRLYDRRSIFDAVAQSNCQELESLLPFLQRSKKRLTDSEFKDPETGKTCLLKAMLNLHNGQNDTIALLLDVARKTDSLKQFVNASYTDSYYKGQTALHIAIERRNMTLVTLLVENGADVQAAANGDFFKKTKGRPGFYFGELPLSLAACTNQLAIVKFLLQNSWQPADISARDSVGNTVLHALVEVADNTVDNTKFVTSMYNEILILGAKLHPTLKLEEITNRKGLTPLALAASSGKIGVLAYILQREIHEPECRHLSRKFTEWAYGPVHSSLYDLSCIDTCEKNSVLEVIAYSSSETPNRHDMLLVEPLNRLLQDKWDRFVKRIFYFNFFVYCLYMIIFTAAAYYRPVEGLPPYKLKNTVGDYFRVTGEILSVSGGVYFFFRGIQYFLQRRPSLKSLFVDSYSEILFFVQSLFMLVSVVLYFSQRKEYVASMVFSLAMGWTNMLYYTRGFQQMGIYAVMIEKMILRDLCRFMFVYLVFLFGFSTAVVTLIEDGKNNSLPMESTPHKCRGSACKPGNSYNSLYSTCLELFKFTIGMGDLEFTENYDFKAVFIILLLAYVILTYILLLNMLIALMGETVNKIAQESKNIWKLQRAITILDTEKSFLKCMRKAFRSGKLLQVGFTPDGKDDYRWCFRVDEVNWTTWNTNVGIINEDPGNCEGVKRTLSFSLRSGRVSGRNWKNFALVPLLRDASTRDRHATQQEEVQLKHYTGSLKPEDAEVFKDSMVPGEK
Description: Test for inhibition of the current induced by capsaicin on rat DRGs (whole-cell patch-clamp). Type of data set: cell-based. As to conditions: DRG neuron; compound at 10 nM; % inhibition of the control capsaicin response; newborn rat DRG neurons. Here is the method:
Test for Inhibition of the Current Induced by Capsaicin on Rat DRGs
Primary Culture of Rat Dorsal Root Ganglion (DRG) Cells:
The neurons of the DRG naturally express the TRPV1 receptor.
Newborn rat DRG primary cultures are prepared from 1-day-old rat pups. Briefly, after dissection, the ganglia are trypsinized and the cells are mechanically dissociated by controlled trituration. The cells are resuspended in an Eagle's basal culture medium containing 10% of fetal calf serum, 25 mM KCl, 2 mM glutamine, 100 μg/ml gentamicin and 50 ng/ml of NGF, and then deposited onto laminin-coated glass cover slips (0.25×10^6 cells per cover slip) which are then placed in 12-well Corning dishes. The cells are incubated at 37° C. in a humidified atmosphere containing 5% CO2 and 95% air. […]
The measuring chambers (volume 800 μl) containing the cell preparation are placed on the platform of an inverted microscope (Olympus IMT2) equipped with Hoffman optics (Modulation Contrast, New York), and observed at the magnification of ×400. […] The overall currents (membrane potential fixed at −60 mV) are recorded with an Axopatch 1D amplifier (Axon Instruments, Foster City, Calif.), connected to a PC controlled by Pclamp8 software (Axon Instrument). The current traces are recorded on paper and simultaneously digitized (sampling frequency 15 to […]) and acquired on the hard drive of the PC. […]
In general terms: The patch-clamp technique gives a direct electrical read-out from membranes.

T1 sequence (Q704Y3 whole entry): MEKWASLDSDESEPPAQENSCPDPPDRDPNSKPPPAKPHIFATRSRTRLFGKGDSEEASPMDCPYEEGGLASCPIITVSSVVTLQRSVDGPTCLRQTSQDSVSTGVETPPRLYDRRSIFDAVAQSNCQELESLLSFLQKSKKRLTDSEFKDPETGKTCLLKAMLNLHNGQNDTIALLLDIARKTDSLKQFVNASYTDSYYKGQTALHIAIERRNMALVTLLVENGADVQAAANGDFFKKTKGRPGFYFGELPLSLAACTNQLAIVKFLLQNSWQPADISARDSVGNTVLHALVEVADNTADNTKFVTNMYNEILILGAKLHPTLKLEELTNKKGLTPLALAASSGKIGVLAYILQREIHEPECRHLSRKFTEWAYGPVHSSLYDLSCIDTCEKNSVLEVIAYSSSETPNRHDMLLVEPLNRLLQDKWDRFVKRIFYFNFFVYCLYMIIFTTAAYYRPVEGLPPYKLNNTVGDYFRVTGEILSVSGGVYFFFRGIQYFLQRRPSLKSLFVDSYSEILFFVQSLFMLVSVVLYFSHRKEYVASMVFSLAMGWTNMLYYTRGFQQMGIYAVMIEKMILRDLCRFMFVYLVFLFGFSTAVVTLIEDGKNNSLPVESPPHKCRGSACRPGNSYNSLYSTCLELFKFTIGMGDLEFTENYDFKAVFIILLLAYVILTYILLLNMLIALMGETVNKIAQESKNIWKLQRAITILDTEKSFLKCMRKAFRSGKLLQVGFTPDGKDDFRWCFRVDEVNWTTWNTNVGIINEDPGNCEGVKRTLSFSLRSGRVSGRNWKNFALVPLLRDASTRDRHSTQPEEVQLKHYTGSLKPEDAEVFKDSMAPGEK

Turning to `O=C(Nc1ccc2c(c1)nc1n2CCC1)c1cc2cc(C(F)(F)F)cnc2n1Cc1ccccc1` [Compound 8, N-(2,3-dihydro-1H-pyrrolo[1,2-a]benzimidazol-6-yl)-1-benzyl-5-trifluoromethyl-1H-pyrrolo[2,3-b]pyridine-2-carboxamide], the “% P 500 μM (percentage protection)” value in data set [1] was 71%.
As a reminder, the inhibition is the drop in the measured response relative to a control, in per cent. `O=C(Nc1ccc2c(c1)nc1n2CCC1)c1cc2cc(F)ccc2n1Cc1ccncc1` [Compound 5, N-(2,3-dihydro-1H-pyrrolo[1,2-a]benzimidazol-6-yl)-5-fluoro-1-[(pyridin-4-yl)methyl]-1H-indole-2-carboxamide] came in with an inhibition at 0.01 µM in data set [2] of 53%.
`O=C(Nc1ccc2c(c1)nc1n2CCCC1)c1cc2cc(F)ccc2n1Cc1ccncc1` [Compound 1, N-(1,2,3,4-tetrahydropyrido[1,2-a]benzimidazol-7-yl)-5-fluoro-1-[(pyridin-4-yl)methyl]-1H-indole-2-carboxamide] showed an inhibition at 0.01 µM in data set [2] of 37%.
Usually melting point stands for the temperature, or range, at which the solid turns liquid. Consider `O=C(Nc1ccc2nc3ncccn3c2c1)c1cc2cc(F)ccc2n1Cc1cccc(F)c1`, for which the melting point fell in the range of 295 to 298 °C.
As for `O=C(Nc1ccc2nc3n(c2c1)CCOC3)c1cc2cc(F)ccc2n1Cc1cccc(F)c1` [Compound 15, N-(3,4-dihydro-1H-oxazino[1,4][4,3-a]benzimidazol-7-yl)-5-fluoro-1-(3-fluorobenzyl)-1H-indole-2-carboxamide], the “% P 500 μM (percentage protection)” value in data set [1] is reported as 56%.
As to `CC1CN=C2Nc3ccc(NC(=O)c4cc5cc(F)ccc5n4Cc4cccc(F)c4)cc3N21` (stereo not drawn) [Compound 26, N-(2,3-dihydro-3-methylimidazo[1,2-a]benzimidazol-6-yl)-5-fluoro-1-(3-fluorobenzyl)-1H-indole-2-carboxamide], the “% P 500 μM (percentage protection)” value in data set [1] is reported as 46%.

Values taken from US8143248B2, “Tricyclic N-heteroaryl-carboxamide derivatives containing a benzimidazole unit, method for preparing same and their therapeutic use” (Sanofi-Aventis, priority 2006, dated 2012).
